Assay results reported in patent US20240158446A1, “CYCLIC COMPOUND HAVING SELECTIVE INHIBITORY ACTION ON KRAS OVER HRAS AND NRAS” (CHUGAI SEIYAKU KABUSHIKI KAISHA, priority 2021, published 2024).
Like-named read-outs stand apart in the source and are kept apart here. Where a SMILES comes first, the peptide text is derived from it. Bridges are numbered along the chain shown (N, C = ends). [ ]: non-standard residue; d: D form. The star is where a group is joined. hPhe(3-Cl-4-CF3) = N[C@@H](CCc1ccc(C(F)(F)F)c(Cl)c1)C(=O)O; NPrPhe(4-CF3) = CCCN[C@@H](Cc1ccc(C(F)(F)F)cc1)C(=O)O; NMeGly(cPent) = CN[C@H](C(=O)O)C1CCCC1; NMeD = CN[C@@H](CC(=O)O)C(=O)O; NMeL = CN[C@@H](CC(C)C)C(=O)O; Oxazolidin(3-yl) = C1CN(*)CO1; Morpholide = C1CN(*)CCO1; Ac5c = NC1(C(=O)O)CCCC1; Aze = O=C(O)[C@@H]1CCN1; Sar = CNCC(=O)O

Columns and labels:
[1] = tested on: human lung cancer strain NCI-H441;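 also: cell proliferation inhibition after four days measured by CellTiter-Glo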
[2] = target: GDP-bound HRAS wild-type protein (Homo sapiens, UniProt P01112); assay: Binding to HRAS by surface plasmon resonance (SPR), Single Cycle Kinetics; conditions: for HRAS/KRAS (ratio of KD value with respect to GDP-bound HRAS wild-type protein to KD value with respect to KRAS): SPR KD ratio HRAS/KRAS, class symbols
[3] = target: GDP-bound NRAS wild-type protein (Homo sapiens, UniProt P01111); assay: Binding to NRAS by surface plasmon resonance (SPR), Single Cycle Kinetics; conditions: for NRAS/KRAS (ratio of KD value with respect to GDP-bound NRAS wild-type protein to KD value with respect to KRAS): SPR KD ratio NRAS/KRAS, class symbols
[4] = target: GDP-bound KRAS wild-type protein (Homo sapiens, UniProt P01116); assay: Binding to KRAS by surface plasmon resonance (SPR), Single Cycle Kinetics
[5] = SPR, GDP-bound HRAS wild-type protein vs GDP-bound KRAS wild-type protein
[6] = SPR, GDP-bound NRAS wild-type protein vs GDP-bound KRAS wild-type protein
[7] = SPR, Single Cycle Kinetics, GDP-bound KRAS wild-type protein, read-out: KRAS KD
[8] = SPR Single Cycle Kinetics, GDP-bound KRAS wild-type protein, 1:1 binding model, read-out: KRAS KD

GDP-bound HRAS wild-type protein, sequence (P01112 whole entry): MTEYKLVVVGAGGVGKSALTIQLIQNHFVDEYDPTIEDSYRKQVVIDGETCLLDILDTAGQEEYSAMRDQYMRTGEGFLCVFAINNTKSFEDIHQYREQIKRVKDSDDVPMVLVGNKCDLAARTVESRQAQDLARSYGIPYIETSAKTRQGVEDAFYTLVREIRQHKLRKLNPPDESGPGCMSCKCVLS
GDP-bound NRAS wild-type protein, sequence (P01111 whole entry): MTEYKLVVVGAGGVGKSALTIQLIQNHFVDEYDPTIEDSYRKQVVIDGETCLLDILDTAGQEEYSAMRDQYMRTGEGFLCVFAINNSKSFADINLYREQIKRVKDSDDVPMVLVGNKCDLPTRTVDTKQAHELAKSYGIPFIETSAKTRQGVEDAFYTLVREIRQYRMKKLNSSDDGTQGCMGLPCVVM
GDP-bound KRAS wild-type protein, sequence (P01116 whole entry): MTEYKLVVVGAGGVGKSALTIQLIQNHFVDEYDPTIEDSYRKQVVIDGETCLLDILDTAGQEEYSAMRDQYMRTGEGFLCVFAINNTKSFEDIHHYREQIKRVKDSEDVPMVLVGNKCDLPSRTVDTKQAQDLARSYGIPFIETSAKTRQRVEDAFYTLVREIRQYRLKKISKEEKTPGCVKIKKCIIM

SMILES | Kd [4, 7] | IC50 [1] | Kd [4, 8] | HRAS/KRAS (ratio of KD value for HRAS to KD value for KRAS) [2, 5] | NRAS/KRAS (ratio of KD value for NRAS to KD value for KRAS) [3, 6] | other results
CCC[C@H]1C(=O)N[C@@H]([C@@H](C)CC)C(=O)N(C)CC(=O)N(C)[C@H]2C/C=C\CCN(C2=O)[C@@H](Cc2ccc(C(F)(F)F)cc2)C(=O)N(C)CC(=O)N[C@@H](CCc2cc(F)c(C(F)(F)F)c(F)c2)C(=O)N2C[C@H](OCC)C[C@H]2C(=O)N(C)C2(CCC2)C(=O)N(C)[C@@H](C2CCCC2)C(=O)N(C)[C@H](C(=O)N2CCCCC2)CC(=O)N1C [PP3118, (2S,8S,12R,14S,20S,23S,27S,30S,36S,38Z)-20-cyclopentyl-8-[2-[3,5-difluoro-4-(trifluoromethyl)phenyl]ethyl]-12-ethoxy-4,16,19,22,26,32,35-heptamethyl-30-[(1S)-1-methylpropyl]-23-(piperidine-1-carbonyl)-27-propyl-2-[[4-(trifluoromethyl)phenyl]methyl]spiro[1,4,7,10,16,19,22,26,29,32,35-undecazatricyclo[34.5.1.0^10,14]dotetracont-38-ene-17,1′-cyclobutane]-3,6,9,15,18,21,25,28,31,34,42-undecone] | 1.2e-10 M | – | – | B (a compound having 3 or more and less than 10 is denoted as B) | A (a compound having 10 or more and less than 20 is denoted as A) | IC50 ([1]; read-out: NCI-H441 cell proliferation inhibitory activity, 50% proliferation inhibitory concentration (IC50 value), NCI-H441, four days, CellTiter-Glo): 6.7 nM; ratio of the KD value with respect to GDP-bound HRAS wild-type protein to the KD value with respect to KRAS ([2]; SPR, KD(HRAS)/KD(KRAS)): B (a compound having 3 or more and less than 10 is denoted as B); ratio of the KD value with respect to GDP-bound NRAS wild-type protein to the KD value with respect to KRAS ([3]; SPR, KD(NRAS)/KD(KRAS)): A (a compound having 10 or more and less than 20 is denoted as A); Kd ([4]; SPR, Single Cycle Kinetics, 1:1 binding model, read-out: KD value with respect to GDP-bound KRAS wild-type protein): 1.2e-10 M
CCC[C@H]1C(=O)N[C@@H]([C@@H](C)CC)C(=O)N(C2CC2)CC(=O)N(C)[C@H]2C/C=C\CCN(C2=O)[C@@H](Cc2ccc(C)cc2)C(=O)N(C)CC(=O)N[C@@H](CCc2ccc(Cl)c(Cl)c2)C(=O)N2C[C@H](OCC)C[C@H]2C(=O)NC2(CC(C)(C)C2)C(=O)N(C)[C@@H](CC(C)(C)C)C(=O)N(C)[C@H](C(=O)N(C)C)CC(=O)N1C [PP2726] | – | 51 nM | 1.1e-09 M | – | – | HRAS/KRAS (ratio of KD value with respect to GDP-bound HRAS wild-type protein to KD value with respect to KRAS) [2]: A (a compound having 10 or more and less than 20 is denoted as A); NRAS/KRAS (ratio of KD value with respect to GDP-bound NRAS wild-type protein to KD value with respect to KRAS) [3]: AA (a compound having 20 or more is denoted as AA)
CCO[C@@H]1C[C@H]2C(=O)NC3(CC=CC3)C(=O)N(C)[C@@H](C3CCCC3)C(=O)N(C)[C@H](C(=O)N(C)C)CC(=O)N(C)[C@@H](C)C(=O)N[C@@H]([C@@H](C)CC)C(=O)N(C)CC(=O)N(C)[C@H]3CCCCCN(C3=O)[C@@H](Cc3ccc(C(F)(F)F)cc3)C(=O)N(C)CC(=O)N[C@@H](CCc3cc(F)c(C(F)(F)F)c(F)c3)C(=O)N2C1 [PP0724] | – | 127 nM | 4.4e-10 M | – | – | HRAS/KRAS (ratio of KD value with respect to HRAS to KD value with respect to KRAS) [2, 5]: B (a compound having 3 or more and less than 10 is denoted as B); NRAS/KRAS (ratio of KD value with respect to NRAS to KD value with respect to KRAS) [3, 6]: B (a compound having 3 or more and less than 10 is denoted as B)
CCCN1C(=O)CN(C)C(=O)CN(C)C(=O)[C@H]([C@@H](C)CC)NC(=O)[C@H](CC(C)C)N(C)C(=O)C[C@@H](C(=O)N2CCOC2)N(C)C(=O)[C@H](C2CCCC2)N(C)C(=O)C2(CCCC2)NC(=O)[C@@H]2CCCN2C(=O)[C@H](CCc2ccc(C(F)(F)F)c(Cl)c2)NC(=O)CN(C)C(=O)[C@@H]1Cc1ccc(C(F)(F)F)cc1 [PP0174] ([NMeL]I[Sar][Sar][NPrPhe(4-CF3)][Sar][hPhe(3-Cl-4-CF3)]P[Ac5c][NMeGly(cPent)][NMeD]-{Oxazolidin(3-yl)}; lactam N-11) | – | 5.2 nM | 1.5e-10 M | B (a compound having 3 or more and less than 10 is denoted as B) | B (a compound having 3 or more and less than 10 is denoted as B) | –
CC[C@H](C)[C@@H]1NC(=O)[C@H](CC)N(C)C(=O)C[C@@H](C(=O)N(C)C)N(C)C(=O)[C@H](C2CCCC2)N(C)C(=O)C2(CCC2)NC(=O)[C@H](C)NC(=O)[C@H](CCc2cc(F)c(C(F)(F)F)c(F)c2)NC(=O)CN(C)C(=O)[C@H](Cc2ccc(C(F)(F)F)cc2)N2CC/C=C\C[C@@H](C2=O)N(C)C(=O)CN(C)C1=O [PP1140, (2S,8S,11S,17S,20S,24S,27S,33S,35Z)-17-cyclopentyl-8-[2-[3,5-difluoro-4-(trifluoromethyl)phenyl]ethyl]-24-ethyl-N,N,4,11,16,19,23,29,32-nonamethyl-27-[(1S)-1-methylpropyl]-3,6,9,12,15,18,22,25,28,31,39-undecaoxo-2-[[4-(trifluoromethyl)phenyl]methyl]spiro[1,4,7,10,13,16,19,23,26,29,32-undecazabicyclo[31.5.1]nonatriacont-35-ene-14,1′-cyclobutane]-20-carboxamide] | 1.5e-10 M | 1780 nM | – | A (a compound having 10 or more and less than 20 is denoted as A) | A (a compound having 10 or more and less than 20 is denoted as A) | –
CCC[C@H]1C(=O)N[C@@H]([C@@H](C)CC)C(=O)N(C)CC(=O)N(C)[C@H]2C/C=C\CCN(C2=O)[C@@H](Cc2ccc(C(F)(F)F)cc2)C(=O)N(C)CC(=O)N[C@@H](CCc2cc(Cl)c3c(ccn3C)c2)C(=O)N2C[C@H](OCC)C[C@H]2C(=O)NC2(CC(C)(C)C2)C(=O)N(C)[C@@H](C(CC)CC)C(=O)N(C)[C@H](C(=O)N(C)C)CC(=O)N1C [PP2896] | – | 79.3 nM | – | – | – | HRAS/KRAS (ratio of KD value with respect to GDP-bound HRAS wild-type protein to KD value with respect to KRAS) [2]: A (a compound having 10 or more and less than 20 is denoted as A); NRAS/KRAS (ratio of KD value with respect to GDP-bound NRAS wild-type protein to KD value with respect to KRAS) [3]: A (a compound having 10 or more and less than 20 is denoted as A); Kd ([4]; KRAS KD (M), SPR Single Cycle Kinetics, GDP-bound KRAS wild-type protein, 1:1 binding model): 2.8e-09 M

Second part, led by results:

Kd [4, 7] | IC50 [1] | Kd [4, 8] | SMILES | HRAS/KRAS (ratio of KD value for HRAS to KD value for KRAS) [2, 5] | NRAS/KRAS (ratio of KD value for NRAS to KD value for KRAS) [3, 6] | other results
– | 4.8 nM | 1.9e-10 M | CCCN1C(=O)[C@@H]2CCN2C(=O)[C@H](C)NC(=O)[C@H]([C@@H](C)CC)NC(=O)[C@H](CC(C)C)N(C)C(=O)C[C@@H](C(=O)N2CCOCC2)N(C)C(=O)[C@H](C2CCCC2)N(C)C(=O)C2(CCCC2)NC(=O)[C@@H]2CCCN2C(=O)[C@H](CCc2ccc(C(F)(F)F)c(Cl)c2)NC(=O)CN(C)C(=O)[C@@H]1Cc1ccc(C(F)(F)F)cc1 [PP0078] ([NMeL]IA[Aze][NPrPhe(4-CF3)][Sar][hPhe(3-Cl-4-CF3)]P[Ac5c][NMeGly(cPent)][NMeD]-Morpholide; lactam N-11) | B (a compound having 3 or more and less than 10 is denoted as B) | C (A compound having a KD ratio of 0.1 or more and less than 3 is denoted as C) | –
1.2e-10 M | 5.2 nM | – | CCOC[C@H]1C(=O)N[C@@H]([C@@H](C)CC)C(=O)N(C)CC(=O)N(C)[C@H]2C/C=C\CCN(C2=O)[C@@H](Cc2ccc(C(F)(F)F)cc2)C(=O)N(C)CC(=O)N[C@@H](CCc2ccc(C(F)(F)F)c(OC)c2)C(=O)N2C[C@H](OCC)C[C@H]2C(=O)N(C)C2(CCC2)C(=O)N(C)[C@@H](C(CC)CC)C(=O)N(C)[C@H](C(=O)N(C)C)CC(=O)N1C [PP2383] | A (a compound having 10 or more and less than 20 is denoted as A) | A (a compound having 10 or more and less than 20 is denoted as A) | –
1.3e-10 M | 4.4 nM | – | CCO[C@@H]1C[C@H]2C(=O)N(C)C3(CC(C)(C)C3)C(=O)N(C)[C@@H](C3CCCC3)C(=O)N(C)[C@H](C(=O)N(C)C)CC(=O)N(C)[C@H]3CCC/C=C/c4ccc(cc4)C[C@@H](C(=O)N(C)CC(=O)N[C@@H](CCc4ccc(Cl)c(Cl)c4)C(=O)N2C1)N1CC/C=C\C[C@@H](C1=O)N(C)C(=O)CN(C1CC1)C(=O)[C@H]([C@@H](C)CC)NC3=O [PP3061] | A (a compound having 10 or more and less than 20 is denoted as A) | A (a compound having 10 or more and less than 20 is denoted as A) | –
– | 15.9 nM | – | CCO[C@@H]1C[C@H]2C(=O)NC3(CCC3)C(=O)N(C)[C@@H](C(CC)CC)C(=O)N(C)[C@H](C(=O)N(C)C)CC(=O)N(C)[C@@H](CC(C)C)C(=O)N[C@@H]([C@@H](C)CC)C(=O)N(C)CC(=O)N(C)[C@H]3C/C=C\CCN(C3=O)[C@@H](Cc3ccc(C(F)(F)F)cc3)C(=O)N(C)CC(=O)N[C@@H](CCc3ccc(C(F)(F)F)c(OC)c3)C(=O)N2C1 [PP1209] | – | – | HRAS/KRAS (ratio of KD value for HRAS to KD value for KRAS) ([2]; SPR, GDP-bound HRAS wild-type protein vs GDP-bound KRAS wild-type protein, KD ratio class): A (a compound having 10 or more and less than 20 is denoted as A); NRAS/KRAS (ratio of KD value for NRAS to KD value for KRAS) ([3]; SPR, GDP-bound NRAS wild-type protein vs GDP-bound KRAS wild-type protein, KD ratio class): AA (a compound having 20 or more is denoted as AA); Kd ([4]; SPR, Single Cycle Kinetics, 1:1 binding model, GDP-bound KRAS wild-type protein, read-out: KRAS KD): 2.2e-10 M
